From US12528786B2, “Plasma kallikrein inhibitors” (Merck Sharp & Dohme LLC, priority 2020, dated 2026) come the findings set out here.

For this assay, the target named is T1, Human plasma kallikrein (Homo sapiens, UniProt P03952).
T1 construct: yields a heavy chain (371 amino acids) and a light chain (248 amino acids); purchased Enzyme Research Laboratories
T1 sequence (P03952 391-638 limits assumed): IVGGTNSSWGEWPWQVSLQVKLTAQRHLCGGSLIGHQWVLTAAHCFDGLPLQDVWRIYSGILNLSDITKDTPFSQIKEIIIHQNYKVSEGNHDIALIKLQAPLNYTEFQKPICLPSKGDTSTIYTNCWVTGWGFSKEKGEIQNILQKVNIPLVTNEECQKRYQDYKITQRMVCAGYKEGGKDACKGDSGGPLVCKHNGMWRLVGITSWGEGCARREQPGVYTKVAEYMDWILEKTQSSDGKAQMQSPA
T1 sequence (P03952 20-390 partner limits assumed): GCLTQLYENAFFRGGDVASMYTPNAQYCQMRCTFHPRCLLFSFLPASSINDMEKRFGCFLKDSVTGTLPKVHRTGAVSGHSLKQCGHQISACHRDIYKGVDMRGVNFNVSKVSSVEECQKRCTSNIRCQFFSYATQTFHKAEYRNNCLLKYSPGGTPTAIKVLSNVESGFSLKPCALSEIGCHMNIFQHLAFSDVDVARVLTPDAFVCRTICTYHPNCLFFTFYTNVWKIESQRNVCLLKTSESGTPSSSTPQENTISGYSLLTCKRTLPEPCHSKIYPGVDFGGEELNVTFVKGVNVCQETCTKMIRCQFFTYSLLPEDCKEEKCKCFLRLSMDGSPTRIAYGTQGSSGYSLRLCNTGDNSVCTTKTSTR
Briefly: Kallikrein Assay (fluorogenic substrate hydrolysis, AFC release). The settings on record: purified Human plasma kallikrein 0.5 nM; substrate Acetyl-K—P—R-AFC 100 mM; 50 mM HEPES pH 7.4. It counts as biochemical. In short, it runs like this: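 Enzyme–inhibitor equilibrated before substrate dilution to ≤0.2 Km; human plasma kallikrein at 0.5 nM final, Acetyl-K-P-R-AFC substrate, HEPES pH 7.4 buffer with NaCl, CaCl2, PEG 8000, at room temperature or 37° C. Linear-phase fluorescence rate gives percent inhibition, four-parameter logistic IC50, then Cheng-Prusoff Ki.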
In general, IC50 refers to the midpoint of a concentration-inhibition curve. Low readings indicate higher potency, high ones lower potency. `Cc1cc(N2C[C@H]3C[C@H]3C2=O)ncc1C(C)n1cc(C(=O)N[C@@H]2CC[C@H](c3cc(Cl)ccc3C#N)C2)nn1` (single isomer, unassigned) [Example 62, N-((1R,3S)-3-(5-chloro-2-cyanophenyl)cyclopentyl)-1-((R or S)-1-(4-methyl-6-((1R,5S)-2-oxo-3-azabicyclo[3.1.0]hexan-3-yl)pyridin-3-yl)ethyl)-1H-1,2,3-triazole-4-carboxamide] registered an IC50 of 2710 nM. Under `Cc1cc(N2C[C@H]3C[C@H]3C2=O)ncc1C(C)n1cc(C(=O)N[C@@H]2CC[C@H](c3cc(Cl)ccc3C#N)C2)nn1` (single isomer, unassigned) [Example 63, N-((1R,3S)-3-(5-chloro-2-cyanophenyl)cyclopentyl)-1-((S or R)-1-(4-methyl-6-((1R,5S)-2-oxo-3-azabicyclo[3.1.0]hexan-3-yl)pyridin-3-yl)ethyl)-1H-1,2,3-triazole-4-carboxamide] stands 26 nM; under `Cc1cc(N2C[C@H]3C[C@H]3C2=O)ncc1C(C)n1cc(C(=O)N[C@H]2C[C@@](C)(c3cc(Cl)ccc3C#N)C2)nn1` (single isomer, unassigned) [Example 64, N-((cis)-3-(5-chloro-2-cyanophenyl)-3-methylcyclobutyl)-1-((R or S)-1-(4-methyl-6-((1R,5S)-2-oxo-3-azabicyclo[3.1.0]hexan-3-yl)pyridin-3-yl)ethyl)-1H-1,2,3-triazole-4-carboxamide], 15.9 nM. In the case of `Cc1cc(N2C[C@H]3C[C@H]3C2=O)ncc1C(C)n1cc(C(=O)N[C@H]2C[C@@](C)(c3cc(Cl)ccc3C#N)C2)nn1` (single isomer, unassigned) [Example 65, N-((cis)-3-(5-chloro-2-cyanophenyl)-3-methylcyclobutyl)-1-((S or R)-1-(4-methyl-6-((1R,5S)-2-oxo-3-azabicyclo[3.1.0]hexan-3-yl)pyridin-3-yl)ethyl)-1H-1,2,3-triazole-4-carboxamide] it was 0.3 nM. In the case of `Cc1ccc(C#N)c([C@H]2C[C@@H](NC(=O)c3cn(C(C)c4cnc(N5C[C@H]6C[C@H]6C5=O)cc4C)nn3)C2)c1` (single isomer, unassigned) [Example 66, N-((cis)-3-(2-cyano-5-methylphenyl)cyclobutyl)-1-((R or S)-1-(4-methyl-6-((1R,5S)-2-oxo-3-azabicyclo[3.1.0]hexan-3-yl)pyridin-3-yl)ethyl)-1H-1,2,3-triazole-4-carboxamide] it was 62.6 nM; in that of `Cc1ccc(C#N)c([C@H]2C[C@@H](NC(=O)c3cn(C(C)c4cnc(N5C[C@H]6C[C@H]6C5=O)cc4C)nn3)C2)c1` (single isomer, unassigned) [Example 67, N-((cis)-3-(2-cyano-5-methylphenyl)cyclobutyl)-1-((S or R)-1-(4-methyl-6-((1R,5S)-2-oxo-3-azabicyclo[3.1.0]hexan-3-yl)pyridin-3-yl)ethyl)-1H-1,2,3-triazole-4-carboxamide], 1.7 nM; in that of `Cc1ccc(C#N)c([C@H]2C[C@@H](NC(=O)c3cn(C(C)c4cnc(N5C[C@H]6C[C@H]6C5=O)cc4C)nn3)C2)n1` (single isomer, unassigned) [Example 68, N-((cis)-3-(3-cyano-6-methylpyridin-2-yl)cyclobutyl)-1-((R or S)-1-(4-methyl-6-((1R,5S)-2-oxo-3-azabicyclo[3.1.0]hexan-3-yl)pyridin-3-yl)ethyl)-1H-1,2,3-triazole-4-carboxamide], 1.9 nM. `Cc1cc(N2C[C@H]3C[C@H]3C2=O)ncc1C(C)n1cc(C(=O)N[C@H]2C[C@@H](c3cc(Cl)ccc3OC(F)F)C2)nn1` (single isomer, unassigned) [Example 69, N-((cis)-3-(5-chloro-2-(difluoromethoxy)phenyl)cyclobutyl)-1-((R or S)-1-(4-methyl-6-((1R,5S)-2-oxo-3-azabicyclo[3.1.0]hexan-3-yl)pyridin-3-yl)ethyl)-1H-1,2,3-triazole-4-carboxamide] came in with an IC50 of 2790 nM. Under `Cc1cc(N2C[C@H]3C[C@H]3C2=O)ncc1C(C)n1cc(C(=O)N[C@H]2C[C@@H](c3cc(Cl)ccc3OC(F)F)C2)nn1` (single isomer, unassigned) [Example 70, N-((cis)-3-(5-chloro-2-(difluoromethoxy)phenyl)cyclobutyl)-1-((S or R)-1-(4-methyl-6-((1R,5S)-2-oxo-3-azabicyclo[3.1.0]hexan-3-yl)pyridin-3-yl)ethyl)-1H-1,2,3-triazole-4-carboxamide] stands 14.6 nM; under `Cc1cc(N2C[C@H]3C[C@H]3C2=O)ncc1C(C)n1cc(C(=O)N[C@H]2C[C@@H](c3cc(Cl)ccc3C(F)F)C2)nn1` (single isomer, unassigned) [Example 71, N-((cis)-3-(5-chloro-2-(difluoromethyl)phenyl)cyclobutyl)-1-((R or S)-1-(4-methyl-6-((1R,5S)-2-oxo-3-azabicyclo[3.1.0]hexan-3-yl)pyridin-3-yl)ethyl)-1H-1,2,3-triazole-4-carboxamide], 12.7 nM. Turning to `Cc1cc(N2C[C@H]3C[C@H]3C2=O)ncc1C(C)n1cc(C(=O)N[C@H]2C[C@@H](c3cc(Cl)ccc3C(F)F)C2)nn1` (single isomer, unassigned) [Example 72, N-((cis)-3-(5-chloro-2-(difluoromethyl)phenyl)cyclobutyl)-1-((S or R)-1-(4-methyl-6-((1R,5S)-2-oxo-3-azabicyclo[3.1.0]hexan-3-yl)pyridin-3-yl)ethyl)-1H-1,2,3-triazole-4-carboxamide], the half-inhibitory concentration (IC50) is 10000 nM. Against the preceding compound, the IC50 is about 790-fold higher.

In turn, `Cc1cc(N2C[C@H]3C[C@H]3C2=O)ncc1C(C)n1cc(C(=O)N[C@H]2C[C@@H](c3cc(Cl)ccn3)C2)nn1` (single isomer, unassigned) [Example 73, N-((cis)-3-(4-chloropyridin-2-yl)cyclobutyl)-1-((R or S)-1-(4-methyl-6-((1R,5S)-2-oxo-3-azabicyclo[3.1.0]hexan-3-yl)pyridin-3-yl)ethyl)-1H-1,2,3-triazole-4-carboxamide] had an IC50 of 107 nM. Under `Cc1cc(N2C[C@H]3C[C@H]3C2=O)ncc1C(C)n1cc(C(=O)N[C@H]2C[C@@H](c3cc(Cl)ccn3)C2)nn1` (single isomer, unassigned) [Example 74, N-((cis)-3-(4-chloropyridin-2-yl)cyclobutyl)-1-((S or R)-1-(4-methyl-6-((1R,5S)-2-oxo-3-azabicyclo[3.1.0]hexan-3-yl)pyridin-3-yl)ethyl)-1H-1,2,3-triazole-4-carboxamide] stands 3.9 nM; under `Cc1cc(N2C[C@H]3C[C@H]3C2=O)ncc1C(C)n1cc(C(=O)N[C@H]2C[C@@](F)(c3cc(Cl)ccc3C#N)C2)nn1` (single isomer, unassigned) [Example 75, N-(cis)-3-(5-chloro-2-cyanophenyl)-3-fluorocyclobutyl)-1-((R or S)-1-(4-methyl-6-((1R,5S)-2-oxo-3-azabicyclo[3.1.0]hexan-3-yl)pyridin-3-yl)ethyl)-1H-1,2,3-triazole-4-carboxamide], 0.2 nM; under `Cc1cc(N2C[C@H]3C[C@H]3C2=O)ncc1C(C)n1cc(C(=O)N[C@H]2C[C@@](F)(c3cc(Cl)ccc3C#N)C2)nn1` (single isomer, unassigned) [Example 76, N-(cis)-3-(5-chloro-2-cyanophenyl)-3-fluorocyclobutyl)-1-((S or R)-1-(4-methyl-6-((1R,5S)-2-oxo-3-azabicyclo[3.1.0]hexan-3-yl)pyridin-3-yl)ethyl)-1H-1,2,3-triazole-4-carboxamide], 15.7 nM. For the compound `C[C@H](c1cnc(N2C[C@H]3C[C@H]3C2=O)nc1)n1cc(C(=O)N[C@H]2C[C@@H](c3cc(Cl)ccc3C#N)C2)nn1` (single isomer, unassigned) [Example 77], it took 8.1 nM to reach half-maximal inhibition (IC50). In the case of `CC(c1cnc(N2C[C@H]3C[C@H]3C2=O)nc1)n1cc(C(=O)N[C@H]2C[C@@H](c3cc(Cl)ccc3C#N)C2)nn1` (single isomer, unassigned) [Example 78] it was 41.5 nM; in that of `Cc1nc(N2C[C@H]3C[C@H]3C2=O)ncc1C(C)n1cc(C(=O)N[C@H]2C[C@@H](c3cc(Cl)ccc3C#N)C2)nn1` (single isomer, unassigned) [Example 80, N-((cis)-3-(5-chloro-2-cyanophenyl)cyclobutyl)-1-((R or S)-1-(4-methyl-2-((1R,5S)-2-oxo-3-azabicyclo[3.1.0]hexan-3-yl)pyrimidin-5-yl)ethyl)-1H-1,2,3-triazole-4-carboxamide], 105 nM; in that of `Cc1nc(N2C[C@H]3C[C@H]3C2=O)ncc1C(C)n1cc(C(=O)N[C@H]2C[C@@H](c3cc(Cl)ccc3C#N)C2)nn1` (single isomer, unassigned) [Example 81, N-((cis)-3-(5-chloro-2-cyanophenyl)cyclobutyl)-1-((S or R)-1-(4-methyl-2-((1R,5S)-2-oxo-3-azabicyclo[3.1.0]hexan-3-yl)pyrimidin-5-yl)ethyl)-1H-1,2,3-triazole-4-carboxamide], 1.9 nM.

`Cc1nc(N2C[C@H]3C[C@H]3C2=O)ncc1C(C)n1cc(C(=O)NC2CC(C)(c3cc(Cl)ccc3C#N)C2)nn1` (single isomer, unassigned) [Example 82, N-((cis)-3-(5-chloro-2-cyanophenyl)-3-methylcyclobutyl)-1-((R or S)-1-(4-methyl-2-((1R,5S)-2-oxo-3-azabicyclo[3.1.0]hexan-3-yl)pyrimidin-5-yl)ethyl)-1H-1,2,3-triazole-4-carboxamide] came in with an IC50 of 0.6 nM.

On to `Cc1nc(N2C[C@H]3C[C@H]3C2=O)ncc1C(C)n1cc(C(=O)NC2CC(C)(c3cc(Cl)ccc3C#N)C2)nn1` (single isomer, unassigned) [Example 83, N-((cis)-3-(5-chloro-2-cyanophenyl)-3-methylcyclobutyl)-1-((S or R)-1-(4-methyl-2-((1R,5S)-2-oxo-3-azabicyclo[3.1.0]hexan-3-yl)pyrimidin-5-yl)ethyl)-1H-1,2,3-triazole-4-carboxamide], for which the 50% inhibitory concentration (IC50) was 39.5 nM.
